Measurements as given in article PMC5634595, “Properties of halogenated and sulfonated porphyrins relevant for the selection of photosensitizers in anticancer and antimicrobial therapies” (PLoS ONE, 2017).
Read-outs that look alike come from different tables or passages of the source.

How the values were obtained:
[1] = Singlet oxygen quantum yield by phosphorescence at 1270 nm; assay type: physicochemical; conditions: EtOH, phenalenone as reference
Description: (§1) Fluorescence emission spectra were recorded from 550 nm to 750 nm with excitation at Soret band (λ≈420 nm). The excitation and emission slits were both set to 8 nm and scanning speed to 50 nm/min. Fluorescence spectra were recorded with a Perkin Elmer Fluorescence Spectrometer LS 55. Determination of fluorescence quantum yields: ΦF of studied photosensitizers was determined using the comparative method according to the equation: ΦF=ΦFStd⋅FAStdn^2/FStdAnStd2, (1) where F and FStd are the areas under the fluorescence emission curves of the sample and the standard, A and AStd are the absorbance of the sample and the standard and n are the refractive indices of the solvent used for the sample and the standard, respectively. Commercially available tetraphenylporphyrin TPP (Std) (ΦF = 0.10 in toluene) was employed as the standard. The absorbance of the solutions at the excitation wavelength was in the range of 0.02. Singlet oxygen quantum yields were determined based on the relative phosphorescence emissions of singlet oxygen generated by a reference and by each one of the porphyrins, using a method described elsewhere. Briefly, a modified Applied Photophysics LKS.60 flash photolysis spectrometer with a Hamamatsu NIR photomultiplier for detection and HP Infinium (500 MHz, 1GSas^-1) or Tektronix DPO 7254 (2.5 GHz, 40GSas^-1) oscilloscopes were used. The adaptation of this spectrometer allowed for the detection of singlet oxygen phosphorescence at room temperature. This emission was detected using a Hamamatsu R5509–42 photomultiplier, cooled to 193 K in a liquid nitrogen chamber. […] The modification of the spectrometer for time-resolved singlet oxygen phosphorescence measurements involved the interposition of a Melles Griot cold mirror (03MCS005), which reflects more than 99% of the incident light in the 400–700 nm range, and of a Scotch RG665 filter. A 600 line diffraction grating was mounted in place of a standard one. […] Solutions of photosensitizers were prepared with matched absorbances close to 0.2 at 355 nm. […]

[2] = n-Octanol/PBS partition coefficient, shake-flask; assay type: physicochemical; conditions: modified shake-flask
Description: The n-octanol/PBS partition coefficients were measured following shake-flask method with minor modifications. The photosensitizers were dissolved in n-octanol previously saturated with a solution of PBS. The same volume of PBS saturated with n-octanol was added and mixed on a vortex device and then the phases were separated by centrifugation. Next, the PBS/n-octanol phase was taken and diluted to obtain 0.5% of PBS/n-octanol content in the final solution. This solution was left into the ultrasonic bath. The fluorescence of each solution was measured using Fluorescence Spectrometer LS 55 (Perkin Elmer) and compared with calibration curve to obtain the concentration of the photosensitizer. Partition coefficients were calculated from the ratio coct/cPBS, where coct and cPBS are the concentrations of the porphyrin derivatives in the n-octanol and in the PBS.

[3] = Fluorescence emission and fluorescence quantum yield (comparative method); assay type: physicochemical; conditions: EtOH, TPP as standard
Description: as §1

[4] = system: P. aeruginosa (ATCC19660); assay: Photodynamic inactivation of microorganisms, CFU; assay type: cell-based; conditions: PDI 10 J/cm^2, 420±20 nm, concentration not given
Description: (§2) The microorganisms used in PDI were: S. aureus (8325–4), E. faecalis (ATCC29212), E. coli (K12), P. aeruginosa (ATCC19660), S. marcescens (ATCC14756) and C. albicans (DAY286). The planctonic bacteria cells were cultured in brain heart infusion broth (Sigma-Aldrich) and LB Broth/Lennox (BioShop Lab Science Products) in an orbital incubator (37°C, 130 rpm), until the optical density reached 0.5, which corresponds to approximately 10^7 CFU per mL. The fungal yeasts were cultured in YPD Broth (BioShop) with overnight aeration at 30°C to reach ca. 10^6 CFU/mL. For PDI experiments cell suspensions of bacteria or fungal yeasts were incubated with various concentrations of the porphyrins at pH 7.4 (PBS) for 1 h in the dark at room temperature. Aliquots (1 mL) were transferred to a 12-well plate and illuminated with a blue light. We used blue-LED array (420±20 nm) to deliver a light dose of 10 J/cm^2 (measured with a power meter). Cells treated with photosensitizers in the dark were incubated covered with aluminum foil for the same time as the PDI groups (1 h). After illumination (or dark incubation) samples were shaken, diluted in PBS, mixed and plated (LB agar). Aliquots were taken from each well to determine the CFU value. Plates were streaked in triplicate and incubated for 12–36 h at 30 °C (for fungal yeasts) or 37 °C (for bacteria) in the dark to allow colony formation.

[5] = UV/Vis absorption spectra, molar absorption coefficients; assay type: physicochemical; conditions: EtOH; for Absorption λmax, B(0,0): Soret band
Description: All commercial chemicals and reagents were of analytical grade and were purchased from Sigma-Aldrich. UV/Vis absorption spectra were recorded in a Hewlett Packard HP8453 spectrophotometer. Solutions containing samples of photosensitizers were dissolved in the selected solvent in quartz cuvettes. Using measured absorbance for various concentrations of porphyrin in ethanol, the molar absorption coefficients were determined from Beer’s law.

[6] = molecular target: HSA (Homo sapiens, UniProt P02768); assay: Binding to HSA by fluorescence quenching (Stern-Volmer, Scatchard); conditions: for KSV (Stern-Volmer constant), HSA: HSA fluorescence quenching, PBS, room temperature; for n (number of binding sites), HSA: Scatchard analysis
HSA, sequence (P02768 25-609): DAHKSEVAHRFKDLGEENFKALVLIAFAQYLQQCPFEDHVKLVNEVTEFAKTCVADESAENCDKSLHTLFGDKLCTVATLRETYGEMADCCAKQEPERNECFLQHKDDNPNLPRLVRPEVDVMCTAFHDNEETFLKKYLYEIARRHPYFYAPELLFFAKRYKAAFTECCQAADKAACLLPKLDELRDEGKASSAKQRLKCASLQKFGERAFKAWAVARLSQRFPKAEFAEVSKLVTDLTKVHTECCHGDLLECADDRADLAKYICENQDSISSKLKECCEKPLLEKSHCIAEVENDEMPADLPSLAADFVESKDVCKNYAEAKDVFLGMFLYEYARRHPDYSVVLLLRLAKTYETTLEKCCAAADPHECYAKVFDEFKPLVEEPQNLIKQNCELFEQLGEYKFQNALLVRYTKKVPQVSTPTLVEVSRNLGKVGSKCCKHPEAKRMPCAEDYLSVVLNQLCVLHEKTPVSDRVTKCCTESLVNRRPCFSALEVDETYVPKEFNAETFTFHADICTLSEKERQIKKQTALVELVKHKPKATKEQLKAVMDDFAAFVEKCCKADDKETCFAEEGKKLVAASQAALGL
Description: The binding of the PS to HSA was studied by spectrofluorometry at room temperature. An aqueous (phosphate buffer saline, PBS) solution of HSA was titrated with varying concentrations of the respective porphyrin solutions. HSA was excited at 295 nm and fluorescence was recorded between 300 nm and 400 nm. The systematic lowering of HSA fluorescence with increasing photosensitizer concentrations was noted and used in the determination of the binding constants and the number of binding sites on HSA according to Scatchard equation. The changes in HSA fluorescence intensity were related to porphyrin concentrations by the Stern-Volmer relationship. The binding constant (Kb) of PS to lipoproteins was also determined using the spectroscopic titration method. The sets of steady-state emission spectra of PBS solutions with different concentrations of HDL and LDL, to which the porphyrin (5 μM) was added were measured. The fluorescence intensity of the dye increased upon its partitioning into the lipoproteins. To obtain Kb, F versus [L] data were plotted and fitted to by a nonlinear regression routine.

[7] = system: E. coli (K12); assay: Photodynamic inactivation of microorganisms, CFU; assay type: cell-based; conditions: PDI 10 J/cm^2, 420±20 nm, concentration not given
Description: as §2

[8] = Photodegradation (photostability) under xenon lamp irradiation; assay type: physicochemical; conditions: same irradiation conditions as in the biological studies
Description: The photostability of porphyrins was investigated following the measurement of their optical absorption in aqueous solutions. Continuous irradiation of an aerated solution were carried out using the xenon lamp (XBO-150) through the 10 cm water filter and bandpass filter transmitting within >400 nm range, delivering 75 mW/cm^2. The reaction progress was monitored by UV/Vis spectroscopy using a Hewlett Packard HP8453 spectrophotometer.

[9] = design: method as in earlier work; conditions: non-halogenated standard, in toluene; cited from earlier work
[10] = reference compound, in ethanol; cited from earlier work

SMILES | Singlet oxygen quantum yield ΦΔ [1] | logP [2] | Fluorescence quantum yield ΦF [3] | Decrease in survival / bacteria CFU killing [4] | Absorption λmax, Qx (0,1) [5] | Absorption λmax, Qx(0,0) [5] | Absorption λmax, Qy (0,0) [5] | Absorption λmax, Qy (0,1) [5] | Absorption λmax, B(0,0) [5] | KSV (Stern-Volmer constant), HSA [6] | n (number of binding sites), HSA [6] | other results
CCNS(=O)(=O)c1ccc(Cl)c(-c2c3nc(c(-c4c(Cl)ccc(S(=O)(=O)NCC)c4Cl)c4ccc([nH]4)c(-c4c(Cl)ccc(S(=O)(=O)NCC)c4Cl)c4nc(c(-c5c(Cl)ccc(S(=O)(=O)NCC)c5Cl)c5ccc2[nH]5)C=C4)C=C3)c1Cl [Cl2PEt, 5,10,15,20-tetrakis(2,6-dichloro-3-N-ethylsulfamoylphenyl)porphyrin] | 0.85 | 1.84 | 0.017 | up to 3 logs | 592 nm | 646 nm | 546 nm | 514 nm | 418 nm | 6.62 10^5M^-1 | 1 | –
O=S(=O)(O)c1ccc(Cl)c(-c2c3nc(c(-c4c(Cl)ccc(S(=O)(=O)O)c4Cl)c4ccc([nH]4)c(-c4c(Cl)ccc(S(=O)(=O)O)c4Cl)c4nc(c(-c5c(Cl)ccc(S(=O)(=O)O)c5Cl)c5ccc2[nH]5)C=C4)C=C3)c1Cl [Cl2POH, 5,10,15,20-tetrakis(2,6-dichloro-3-sulfophenyl)porphyrin] | 0.98 | -1.8 | 0.015 | 1.5–2 logs | 592 nm | 646 nm | 546 nm | 514 nm | 420 nm | 4.66 10^5M^-1 | 1 | Decrease in survival [7]: 1.5–2 logs
C=CC1=C(C)c2cc3[nH]c(cc4nc(cc5[nH]c(cc1n2)c(C)c5CCC(=O)O)C(CCC(=O)O)=C4C)c(C)c3C=C [PpIX] | – | – | – | – | – | – | – | – | – | – | – | Photostability (Soret band absorbance during irradiation) [8]: more prone to photooxidation
C1=Cc2nc1c(-c1ccccc1)c1nc(c(-c3ccccc3)c3ccc([nH]3)c(-c3ccccc3)c3ccc([nH]3)c2-c2ccccc2)C=C1 [TPP, tetraphenylporphyrin] | – | – | – | – | – | – | – | – | – | – | – | Fluorescence quantum yield ΦF [9]: 0.10
O=C1C=Cc2cccc3cccc1c23 [phenalenone] | – | – | – | – | – | – | – | – | – | – | – | Singlet oxygen quantum yield ΦΔ [10]: 0.95 ± 0.02
